Common to all, as to test: NCI tumour cell line growth inhibition, 48 h
Assay [1] has as its system RPMI-8226 leukemia.
The test system of assay [2] is HL-60(TB) leukemia.
For assay [3], the system named is 786-0 renal.
The test system of assay [4] is ACHN renal.
Assay [5] relates to PC-3 prostate.
The subject of assay [6] is OVCAR-8 ovarian.
Assay [7] concerns IGROV1 ovarian.
Assay [8] has as its system SK-MEL-5 melanoma.
Assay [9] has as its system A498 renal.
The test system of assay [10] is RXF 393 renal.
For assay [11], the system named is K-562 leukemia.

Each structure is given as a SMILES string.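 Compound exposure: 48 hours, 5 concentrations, 96-well plates. GI50 marks 50% less growth. At the TGI there is no net growth.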

Turning to `C=CCCCCOC1C=CC(OC(C)=O)C(COC(C)=O)O1` (stereo unspecified), the TGI in assay [1], in assay [2], in [3], in assay [4], in [5] and in assay [6] was more than 100 µM each time. Moreover, the TGI in [7], in [8], in assay [9] and in [10] was more than 100 µM throughout.

Take `CCCCCCc1nn2c(-c3ccc(C)cc3)nnc2s1`: the TGI in assay [1], in assay [3], in assay [4], in assay [5], in assay [11] and in assay [6] was more than 100 µM throughout. Moreover, the TGI in [8], in assay [9] and in [10] was more than 100 µM each time.

In the case of `COc1cc(N=C(N)N=C(N)N)c2ncccc2c1`, the TGI in [3], in assay [4], in assay [5], in [6], in assay [7] and in assay [8] was more than 100 µM each time. Besides, the TGI in assay [9] and in [10] was more than 100 µM throughout.

As to `O=C1/C(=C/c2ccc(O)cc2)NC(=S)N1CN1CCCCC1`, the TGI in assay [1], in assay [2], in assay [3], in assay [4], in [5] and in [11] was more than 100 µM in each case. For the same compound, the TGI in assay [6], in assay [7], in [8] and in assay [9] was more than 100 µM throughout.

Regarding `O=C(Nc1ccc(Cl)cc1)c1cc(S(=O)(=O)Nc2n[nH]c(=O)[nH]2)c(SSc2cc(Cl)c(C(=O)Nc3ccc(Cl)cc3)cc2S(=O)(=O)Nc2n[nH]c(=O)[nH]2)cc1Cl`, the TGI in [1], in assay [2], in assay [3], in [4], in assay [5] and in assay [11] was more than 100 µM throughout. Besides, the TGI in [6], in assay [7], in assay [8] and in assay [9] was more than 100 µM each time.

Take `COc1ccc2c(c1)/C(=C(\C(Cl)=C(Cl)Cl)[N+](=O)[O-])N2`: the TGI in assay [2], in assay [3], in assay [4], in assay [5], in assay [11] and in assay [6] was more than 100 µM throughout. The TGI in assay [7], in assay [8], in assay [9] and in assay [10] was more than 100 µM each time.

In the case of `COC(=O)N1CC[C@@H]2CCC=C(c3cccc4c3OCO4)[C@@H]21`, the TGI in assay [2], in assay [3], in [4], in assay [5], in assay [11] and in assay [6] was more than 100 µM throughout. Also, the TGI in [7], in assay [8], in assay [9] and in assay [10] was more than 100 µM throughout.

Regarding `CC1=C(C)C(=O)OC(C(C)(O)C2(O)CCC3(O)C4CC(Cl)C5(O)C(O)C=CC(=O)C5(C)C4CCC32C)C1` (stereo unspecified), the TGI is 47.3 µM in assay [1]; 9.04 µM in assay [2]; more than 100 µM in assay [3]; more than 100 µM in assay [4]; more than 100 µM in assay [5]; more than 100 µM in assay [11]. Besides, the TGI is more than 100 µM in [6], more than 100 µM in assay [7], more than 100 µM in [9] and 56.1 µM in [10].

Take `COc1ccc2nc(-c3ccc(OC(=O)N(C)C)cc3)cn2c1`: the TGI in assay [2], in assay [3], in assay [4], in assay [5], in assay [11] and in [6] was more than 100 µM each time. The TGI in assay [7], in assay [8] and in assay [9] was more than 100 µM in each case.

Regarding `CCN(CC)CCN1C(=O)c2cccc3c(-c4ccc5c(c4)ncn5C4CCCCC4)ccc(c23)C1=O`, the GI50 in assay [1] is 1.17 µM; in [2], 1.95 µM; in [4], 1.16 µM; in assay [5], 1.64 µM; in assay [11] it was 0.476 µM; in assay [6] it was 1.75 µM. Further, the GI50 in assay [8] is 1.32 µM; in assay [9] it was 1.65 µM. The TGI in assay [1] was 3.53 µM; in assay [2], 4.61 µM; in assay [4], 2.96 µM; in assay [5] it was 4.66 µM; in assay [11] it was 3.97 µM; in assay [6], 4.62 µM. The TGI stood at 2.61 µM in assay [8] and 3.22 µM in [9].

As to `C=C1CC(OC(C)=O)/C=C(/C)CCC(C(C)(C)O)CC1O` (stereo unspecified), the TGI in assay [2], in [3], in [4], in assay [5], in assay [6] and in assay [7] was more than 100 µM in each case. In addition, the TGI in [8], in assay [9] and in [10] was more than 100 µM in each case.

On to `CCCS(=O)(=O)O`, for which the TGI in assay [1], in assay [2], in assay [4], in assay [5], in assay [11] and in assay [6] was more than 100 µM in each case. Moreover, the TGI in [7], in assay [8], in assay [9] and in assay [10] was more than 100 µM throughout.

Take `C=C1C(=O)OC2/C=C(\C)CC/C=C(/C)CC(OC(=O)/C(=C/CO)CO)C12` (stereo unspecified): the TGI was 72.7 µM in assay [1]; 20.7 µM in [2]; 88.8 µM in assay [3]; 33.5 µM in [4]; more than 100 µM in assay [5]; more than 100 µM in assay [11]. Besides, the TGI in [6] was more than 100 µM; in assay [7], more than 100 µM; in assay [8], 31.2 µM; in assay [10] it was 23.7 µM.

The values above are taken from PubChem BioAssay (NCI).
